Experimental data reported in patent US20200308103A1, “NOVEL CRYSTALS OF HYDROXAMIC ACID DERIVATIVE, PRODUCTION METHOD THEREOF, AND PHARMACEUTICAL COMPOSITION” (FUJIFILM Toyama Chemical Co., Ltd., priority 2016, published 2020).
Where two headings read alike, the source gives them in different places.

Experiments:
[1] = Solubility in aqueous sulfobutyl ether-β-cyclodextrin (SBEβCD) solution; format: physicochemical; conditions: for solubility: aqueous with cosolvent or surfactant or cyclodextrin, thermodynamic from solid, read-out: Solubility (dissolved / not dissolved)
Procedure: 32.4 mL of water for injection was added to 6.00 g of sulfobutyl ether-β-cyclodextrin (CYCLOLAB Cyclodextrin Research & Development Laboratory Ltd.) (hereinafter also referred to as “SBEβCD”), and the solution was then stirred at 25° C. for 10 minutes. After the dissolution of the substance had been confirmed by visual observation, the mixed solution was cooled to 10° C. Thereafter, 0.50 g of type I crystal or type II crystal was added to the reaction mixture, and the obtained solution was then heated stepwise, until the crystal was dissolved in the solution.
32.5 mL of water for injection was added to 6.00 g of SBEβCD, and the solution was then stirred at 25° C. for 10 minutes. After the dissolution of the substance had been confirmed by visual observation, the mixed solution was cooled to 0° C., 5° C. or 10° C. Thereafter, 0.48 g of type 111 crystal was added to the reaction mixture, and the obtained solution was then stirred, until the crystal was dissolved in the solution.

[2] = format: physicochemical
Procedure: The type I crystals and the type II crystals were mixed, suspended in a 40% aqueous acetonitrile solution, and stirred at 25° C.
(§1) The mixture was sampled over time, and the crystal form was measured by powder X-ray diffraction.

[3] = Stability (2): storage at 60° C. and relative humidity 75%, HPLC purity; format: physicochemical; conditions: relative humidity 75%; for Stability: conclusion in words
Procedure: The type I crystals, the type II crystals, and the type III crystals were stored under conditions of 60° C. and a relative humidity of 75%.
These crystals were sampled over time, and their purity was measured by HPLC.
(§2) Measurement wavelength: 254 nm
Column: Ascentis Express C18, particle size: 5 μm, 4.6 mm in inside diameter×150 mm in length
(§3) Column temperature: 40° C.
(§4) Mobile phase A: water/acetic acid=1000/1 solution
(§5) Mobile phase B: acetonitrile/acetic acid=1000/1 solution

[4] = Hygroscopic properties (storage, weight change); format: physicochemical
Procedure: The type I crystals and the type III crystals were stored under conditions of 25° C. and a relative humidity of 97%.
These crystals were sampled over time, and the weights of the crystals were measured to determine the rates of change in weight.
Rate of change in weight (%)=((B−A)/A)×100
A: Weight of the crystals before the start of the test
B: Weight of the crystals after the start of the test

[5] = Stability (1): light irradiation, HPLC purity; format: physicochemical; conditions: for Stability against light: 1,200,000 lx·hr, conclusion in words
Procedure: Test Example 5 Stability (1) The type I crystals, the type II crystals, and the type Ill crystals were placed in a light stability tester and irradiated with light (1,200,000 lx·hr) (light source: D65 lamp (FLR20S-D-EDL-D65/M)).
The purity of the crystals of each type was measured by HPLC.
as §2
Column: Ascentis Express C18 (Sigma-Aldrich Japan), particle diameter: 5 μm, inner diameter 4.6 mm×length 150 mm
as §3, §4, §5

[6] = Physical stability (2): type I + type II crystals suspended in acetonitrile, crystal form by powder X-ray diffraction; format: physicochemical; conditions: acetonitrile (nonaqueous conditions), conclusion in words
Procedure: The type I crystals and the type 11 crystals were mixed, suspended in acetonitrile, and stirred at 5, 25, or 40° C.
as §1

[7] = format: physicochemical; remark: listed apart in the source
Procedure: The type I crystals and the type III crystals were mixed, suspended in acetonitrile, and stirred at 5, 25, or 40° C.
as §1

[8] = biological target: uridyldiphospho-3-O-acyl-N-acetylglucosamine deacetylase (LpxC) (Pseudomonas aeruginosa, UniProt P47205); conditions: known from Patent Literature 1; cited from earlier work
[9] = 25° C., relative humidity 97%, 4 weeks
[10] = after light irradiation 1,200,000 lx·hr, D65 lamp
[11] = light stability test, before start of test

Chain of uridyldiphospho-3-O-acyl-N-acetylglucosamine deacetylase (LpxC) (P47205 whole entry): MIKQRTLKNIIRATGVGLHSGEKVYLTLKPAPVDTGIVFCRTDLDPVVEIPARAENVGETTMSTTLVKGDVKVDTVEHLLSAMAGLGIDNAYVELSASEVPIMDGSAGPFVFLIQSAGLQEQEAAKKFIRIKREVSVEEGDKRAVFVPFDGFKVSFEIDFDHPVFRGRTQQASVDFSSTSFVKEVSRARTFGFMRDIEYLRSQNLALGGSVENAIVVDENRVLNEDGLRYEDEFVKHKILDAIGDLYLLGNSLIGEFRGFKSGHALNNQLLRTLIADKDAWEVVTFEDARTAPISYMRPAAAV

CNC(=O)[C@@](C)(C(=O)NO)N(C)C(=O)c1ccc(C#Cc2ccc([C@H](O)CO)cc2)cc1 [Type I crystals, (2S)-2-((4-((4-((1S)-1,2-dihydroxyethyl)phenyl)ethynyl)benzoyl)(methyl)amino)-N-hydroxy-N′,2-dimethylmalonamide, reference compound]
Temperature at which the crystal was dissolved in the solution [1]: 25 °C | solubility ([1]; 10 °C, 10 ° C.): < 15.4 mg/mL | solubility ([1]; 15 °C, 15 ° C.): < 15.4 mg/mL | solubility ([1]; 20 °C, 20 ° C.): < 15.4 mg/mL | solubility ([1]; 25 °C, 25 ° C.): > 15.4 mg/mL | Physical stability / crystal transformation [2]: transformed to the type II crystals | HPLC purity (%) ([3]; 4 weeks): 98.7% | HPLC purity (%) ([3]; 7 weeks): 97.6% | HPLC purity (%) ([3]; 13 weeks): 90.4% | HPLC purity (%) ([3]; 13 weeks, listed as type I crystals): approximately 90% | HPLC purity (%) ([3]; before start of test): 99.2% | Rate of change in weight (%) [4, 9]: 0.80% | Rate of change in weight (%) ([4]; 25° C., relative humidity 97%, 13 weeks): 1.09% | Rate of change in weight (%) ([4]; 25° C., relative humidity 97%, 13 weeks, listed as type I crystals): ≥ 1% | Stability against light [5]: reduced | HPLC purity (%) [5, 10]: 96.1% | HPLC purity (%) [5, 11]: 99.2% | Physical stability / crystal transformation [6]: transformed to the type III crystals | Physical stability / crystal transformation [7]: transformed to the type III crystals

CNC(=O)[C@@](C)(C(=O)NO)N(C)C(=O)c1ccc(C#Cc2ccc([C@H](O)CO)cc2)cc1 [Type II crystals, (2S)-2-((4-((4-((1S)-1,2-dihydroxyethyl)phenyl)ethynyl)benzoyl)(methyl)amino)-N-hydroxy-N′,2-dimethylmalonamide]
Temperature at which the crystal was dissolved in the solution [1]: 25 °C | Physical stability / crystal transformation [2]: more stable than the type I crystals | HPLC purity (%) ([3]; 4 weeks): 98.7% | HPLC purity (%) ([3]; 7 weeks): 97.7% | HPLC purity (%) ([3]; 13 weeks): 91.2% | HPLC purity (%) ([3]; 13 weeks, listed as type II crystals): approximately 91% | HPLC purity (%) ([3]; before start of test): 99.1% | Stability [3]: more stable than the type I crystals | Stability against light ([5]; listed as type 11 crystals): more stable against light than the type I crystals | HPLC purity (%) [5, 10]: 98.5% | HPLC purity (%) [5, 11]: 99.1% | Physical stability / crystal transformation [6]: transformed to the type III crystals

CNC(=O)[C@@](C)(C(=O)NO)N(C)C(=O)c1ccc(C#Cc2ccc([C@H](O)CO)cc2)cc1 [Type III crystals, (2S)-2-((4-((4-((1S)-1,2-dihydroxyethyl)phenyl)ethynyl)benzoyl)(methyl)amino)-N-hydroxy-N′,2-dimethylmalonamide]
Temperature at which the crystal was dissolved in the solution [1]: ≤ 0 °C | solubility ([1]; 0 °C, 0 ° C.): > 14.8 mg/mL | solubility ([1]; 5 °C, 5 ° C.): > 14.8 mg/mL | HPLC purity (%) ([3]; 4 weeks): 99.3% | HPLC purity (%) ([3]; 7 weeks): 98.6% | HPLC purity (%) ([3]; 13 weeks): 94.8% | HPLC purity (%) ([3]; 13 weeks, listed as type III crystals): approximately 95% | HPLC purity (%) ([3]; before start of test): 99.5% | Stability [3]: more stable than the type I crystals | Stability ([3]; listed as type Ill crystals): most stable | Rate of change in weight (%) [4, 9]: 0.10% | Rate of change in weight (%) ([4]; 25° C., relative humidity 97%, 16 weeks): 0.03% | Rate of change in weight ([4]; 25° C., relative humidity 97%, time not stated): ≤ 0.1% | Hygroscopic properties ([4]; conclusion in words): low | Stability against light [5]: more stable against light than the type I crystals | HPLC purity (%) [5, 10]: 99.4% | HPLC purity (%) [5, 11]: 99.5% | Physical stability / crystal transformation [6]: more stable than the type I crystals and the type II crystals | Physical stability / crystal transformation [7]: more stable than the type I crystals

CNC(=O)[C@@](C)(C(=O)NO)N(C)C(=O)c1ccc(C#Cc2ccc([C@H](O)CO)cc2)cc1 [compound A, (2S)-2-((4-((4-((1S)-1,2-dihydroxyethyl)phenyl)ethynyl)benzoyl)(methyl)amino)-N-hydroxy-N′,2-dimethylmalonamide]
LpxC inhibitory activity [8]: excellent
